Source: ChEMBL document CHEMBL4837244 (ACS Med Chem Lett, 2021)

Legend:
Assay type in all cases: ADME, Microsome
[1] = Metabolic stability in rat liver microsomes assessed as parent compound remaining at 0.1 uM in presence of NADPH by LC-MS/MS analysis; details: read-out: Stabilty
[2] = Metabolic stability in mouse liver microsomes assessed as parent compound remaining at 0.1 uM in presence of NADPH by LC-MS/MS analysis; details: read-out: Stabilty
[3] = Metabolic stability in human liver microsomes assessed as parent compound remaining at 0.1 uM in presence of NADPH by LC-MS/MS analysis

Structure (SMILES) | remaining at 0.1 µM [1] [%] | remaining at 0.1 µM [2] [%] | Stabilty [3]
CCOC(=O)c1ccc(CCN2CCC(Nc3nc4ccccc4n3Cc3ccc(C#N)cc3)CC2)cc1 | < 45 | < 45 | Unstable
N#Cc1ccc(CCN2CCC(Nc3nc4ccccc4n3Cc3ccc(C#N)c(F)c3)CC2)cc1 | < 45 | < 45 | Unstable

The next lines start with the values.

remaining at 0.1 µM [1] [%] | remaining at 0.1 µM [2] [%] | Stabilty [3] | Structure (SMILES)
< 45 | < 45 | Unstable | O=C(c1ccc(CCN2CCC(Nc3nc4ccccc4n3Cc3ccc(F)cc3)CC2)cc1)N1CCNCC1
< 45 | < 45 | Unstable | N#Cc1ccc(CCN2CCC(Nc3nc4ccccc4n3Cc3ccc(C(F)(F)F)nc3)CC2)cc1
< 45 | < 45 | Unstable | N#Cc1ccc(Cn2c(NC3CCN(CCc4ccc(C(F)(F)F)cc4)CC3)nc3ccccc32)cc1
